Patent publication US9827235B2, “Pharmaceutical compositions comprising antibacterial agents” (WOCKHARDT LIMITED, priority 2013, dated 2017)
Like-named read-outs stand apart in the source and are kept apart here.

Assays:
Format in all cases: cell-based
[1] = system: clinical isolate of K. pneumoniae B 88 producing metallo beta-lactamases [SHV, TEM, NDM-1]; assay: Time kill study; details: for Bacterial count: each agent at 8 mcg/ml, initial count 6.18 log CFU/ml; for Change in bacterial count (in words): used alone at 8 mcg/ml, at the end of 6 hours
Method: (§1) Typically, freshly grown cultures were diluted to the required cell density (initial starting inoculum) in Cation adjusted Muller Hinton broth medium BD, USA). The antibacterial agents at the required concentrations were added into the culture-containing medium either alone or in combination. The samples were incubated under shaking condition (120 rpm) at 37° C. Enumeration of viable bacterial count was undertaken, every 2 hour, by diluting in normal saline and plating on to the Tryptic Soya Agar plates (BD, USA). The plates were incubated for 24 hours to arrive at the viable bacterial count. […] The decrease of 1 Log CFU/ml, after administration of combination of present invention, in comparison to initial bacterial count corresponds to 90% killing of bacteria. Similarly, 2 Log CFU/ml reductions corresponds to 99% killing of bacteria and 3 Log CFU/ml reductions is equal to 99.9% killing of bacteria.

[2] = system: P. aeruginosa H 113720186; assay: MIC on Muller Hinton Agar (CLSI); details: for MIC: enzymes IMP
Method: (§2) The antibacterial activity of combinations according to the invention was investigated against various bacterial strains. In a typical study, minimum inhibitory concentrations (MIC) were determined using Muller Hinton Agar (MHA) (BD, USA) according to Clinical and Laboratory Standards Institute (CLSI) recommendations, (Clinical and Laboratory Standards Institute (CLSI), Performance Standards for Antimicrobial Susceptibility Testing, 20th Informational Supplement, M 100-S20, Volume 30, No. 1, 2010). In short, the inocula were adjusted to deliver about 10^4 colony forming units (CFU) per spot with a multipoint inoculator (Applied Quality Services, UK). The plates were pored with doubling concentration range of the test combinations according to invention containing MHA. The plates were inoculated and were incubated at 35° C. for 18 hours.

K. pneumoniae M 3 = assay: MIC on Muller Hinton Agar (CLSI); details: for MIC: enzymes SHV, CTXM, TEM
Method: as §2

E. coli S 16 = assay: MIC on Muller Hinton Agar (CLSI); details: for MIC: enzymes CMY type, TEM, DHA
Method: as §2

P. aeruginosa S 508 = assay: MIC on Muller Hinton Agar (CLSI)
Method: as §2

P. aeruginosa S 504 = assay: MIC on Muller Hinton Agar (CLSI)
Method: as §2

K. pneumoniae S 48 = assay: MIC on Muller Hinton Agar (CLSI); details: for MIC: enzymes SHV, TEM
Method: as §2

E. coli S 30 = assay: MIC on Muller Hinton Agar (CLSI); details: for MIC: enzymes CMY type, TEM
Method: as §2

E. coli S 330 = assay: MIC on Muller Hinton Agar (CLSI); details: for MIC: Escherichia coli, S330, agent alone, enzymes NDM, read-out: MIC
Method: as §2

K. pneumoniae NCTC 13439 = assay: MIC on Muller Hinton Agar (CLSI); details: for MIC: Klebsiella pneumoniae, NCTC13439, agent alone, enzymes VIM-1, read-out: MIC
Method: as §2

K. pneumoniae B 88 = assay: MIC on Muller Hinton Agar (CLSI); details: for MIC: enzymes SHV, TEM
Method: as §2

K. pneumoniae S 50 = assay: MIC on Muller Hinton Agar (CLSI); details: for MIC: enzymes SHV, TEM
Method: as §2

K. pneumoniae B 77 = assay: MIC on Muller Hinton Agar (CLSI); details: for MIC: enzymes SHV, TEM
Method: as §2

E. coli S 35 = assay: MIC on Muller Hinton Agar (CLSI); details: for MIC: enzymes TEM
Method: as §2

P. aeruginosa Q-111 = assay: MIC on Muller Hinton Agar (CLSI)
Method: as §2

E. coli S 33 = assay: MIC on Muller Hinton Agar (CLSI); details: for MIC: enzymes TEM
Method: as §2

E. coli M 44 = assay: MIC on Muller Hinton Agar (CLSI); details: for MIC: enzymes TEM
Method: as §2

P. aeruginosa S 513 = assay: MIC on Muller Hinton Agar (CLSI)
Method: as §2

[3] = system: highly resistant strains of E. coli, K. pneumonia and P. aeruginosa; assay: MIC, summary over the strain panel; details: for MICs (range over the strains): agent alone
Method: as §2

[4] = system: clinical isolate of K. pneumoniae S 48 producing metallo beta-lactamases [SHV, TEM, NDM-1]; assay: Time kill study; details: for Bacterial count: each agent at 8 mcg/ml, initial count 6.84 log CFU/ml
Method: as §1

[5] = Pseudomonas aeruginosa, H113720186, agent alone, read-out: MIC
[6] = Klebsiella pneumoniae, M3, agent alone, NDM-1, read-out: MIC
[7] = Escherichia coli, S16, agent alone, read-out: MIC
[8] = Pseudomonas aeruginosa, S508, agent alone, enzymes VIM-11, read-out: MIC
[9] = Pseudomonas aeruginosa, S504, agent alone, enzymes VIM-6, read-out: MIC
[10] = Klebsiella pneumoniae, S48, agent alone, NDM-1, read-out: MIC
[11] = Escherichia coli, S30, agent alone, NDM-1, read-out: MIC
[12] = Klebsiella pneumoniae, B88, agent alone, NDM-1, read-out: MIC
[13] = Klebsiella pneumoniae, S50, agent alone, NDM-1, read-out: MIC
[14] = Klebsiella pneumoniae, B77, agent alone, NDM-1, read-out: MIC
[15] = Escherichia coli, S35, agent alone, NDM-1, read-out: MIC
[16] = Pseudomonas aeruginosa, Q111, agent alone, enzymes OXA-4, OXA-11, read-out: MIC
[17] = Escherichia coli, S33, agent alone, NDM-1, read-out: MIC
[18] = Escherichia coli, M44, agent alone, NDM-1, read-out: MIC
[19] = Pseudomonas aeruginosa, S513, agent alone, enzymes VIM-6, read-out: MIC

Molecule | Bacterial count ([1]; 2 hours) [Log CFU/ml] | Bacterial count ([1]; 4 hours) [Log CFU/ml] | Bacterial count ([1]; 6 hours) [Log CFU/ml] | MIC [2, 5] [µg/mL] | MIC (K. pneumoniae M 3; [6]) [µg/mL] | MIC (E. coli S 16; [7]) [µg/mL] | MIC (P. aeruginosa S 508; [8]) [µg/mL] | MIC (P. aeruginosa S 504; [9]) [µg/mL] | MIC (K. pneumoniae S 48; [10]) [µg/mL] | MIC (E. coli S 30; [11]) [µg/mL] | MIC (E. coli S 330) [µg/mL] | MIC (K. pneumoniae NCTC 13439) [µg/mL] | MIC (K. pneumoniae B 88; [12]) [µg/mL] | MIC (K. pneumoniae S 50; [13]) [µg/mL] | MIC (K. pneumoniae B 77; [14]) [µg/mL] | MIC (E. coli S 35; [15]) [µg/mL] | MIC (P. aeruginosa Q-111; [16]) [µg/mL] | MIC (E. coli S 33; [17]) [µg/mL] | MIC (E. coli M 44; [18]) [µg/mL] | MIC (P. aeruginosa S 513; [19]) [µg/mL] | further results
C[C@@H](O)[C@H]1C(=O)N2C(C(=O)O)=C(S[C@@H]3CN[C@H](C(=O)N(C)C)C3)[C@H](C)[C@H]12 [Meropenem, meropenem] | 6.02 | 6.3 | 7.6 | > 64 | 16 | > 32 | > 32 | > 32 | 32 | > 32 | > 32 | > 32 | > 32 | > 32 | > 32 | > 32 | 4 | > 32 | 32 | > 32 | Change in bacterial count (in words) [1]: no decrease in bacterial count was observed
CC(C)(O/N=C(\C(=O)N[C@@H]1C(=O)N2C(C(=O)[O-])=C(C[n+]3ccccc3)CS[C@H]12)c1csc(N)n1)C(=O)O [ceftazidine, ceftazidime] |  |  |  |  |  |  |  |  |  |  |  |  |  |  |  |  |  |  |  |  | MIC values of ceftazidime in presence of avibactam ([3]; with avibactam at 4 mcg/ml, in most of the cases): more than 16 mcg/ml; MIC (mcg/ml) of ceftazidine in presence of avibactam (4 mcg/ml) ([2]; with avibactam at 4 mcg/ml): >32 µg/mL; MIC (mcg/ml) of ceftazidine in presence of avibactam (4 mcg/ml) (K. pneumoniae M 3; with avibactam at 4 mcg/ml): >16 µg/mL; MIC (mcg/ml) of ceftazidine in presence of avibactam (4 mcg/ml) (E. coli S 16; with avibactam at 4 mcg/ml): >16 µg/mL; MIC (mcg/ml) of ceftazidine in presence of avibactam (4 mcg/ml) (P. aeruginosa S 508; with avibactam at 4 mcg/ml): >16 µg/mL; MIC (mcg/ml) of ceftazidine in presence of avibactam (4 mcg/ml) (P. aeruginosa S 504; with avibactam at 4 mcg/ml): >16 µg/mL; MIC (mcg/ml) of ceftazidine in presence of avibactam (4 mcg/ml) (K. pneumoniae S 48; with avibactam at 4 mcg/ml): >16 µg/mL; MIC (mcg/ml) of ceftazidine in presence of avibactam (4 mcg/ml) (E. coli S 30; with avibactam at 4 mcg/ml): >16 µg/mL; MIC (mcg/ml) of ceftazidine in presence of avibactam (4 mcg/ml) (E. coli S 330; with avibactam at 4 mcg/ml): >16 µg/mL; MIC (mcg/ml) of ceftazidine in presence of avibactam (4 mcg/ml) (K. pneumoniae NCTC 13439; with avibactam at 4 mcg/ml): >16 µg/mL; MIC (mcg/ml) of ceftazidine in presence of avibactam (4 mcg/ml) (K. pneumoniae B 88; with avibactam at 4 mcg/ml): >16 µg/mL; MIC (mcg/ml) of ceftazidine in presence of avibactam (4 mcg/ml) (K. pneumoniae S 50; with avibactam at 4 mcg/ml): >16 µg/mL; MIC (mcg/ml) of ceftazidine in presence of avibactam (4 mcg/ml) (K. pneumoniae B 77; with avibactam at 4 mcg/ml): >16 µg/mL; MIC (mcg/ml) of ceftazidine in presence of avibactam (4 mcg/ml) (E. coli S 35; with avibactam at 4 mcg/ml): >16 µg/mL; MIC (mcg/ml) of ceftazidine in presence of avibactam (4 mcg/ml) (P. aeruginosa Q-111; with avibactam at 4 mcg/ml): 32 µg/mL; MIC (mcg/ml) of ceftazidine in presence of avibactam (4 mcg/ml) (E. coli S 33; with avibactam at 4 mcg/ml): >16 µg/mL; MIC (mcg/ml) of ceftazidine in presence of avibactam (4 mcg/ml) (E. coli M 44; with avibactam at 4 mcg/ml): >16 µg/mL; MIC (mcg/ml) of ceftazidine in presence of avibactam (4 mcg/ml) (P. aeruginosa S 513; with avibactam at 4 mcg/ml): >16 µg/mL
colistin |  |  |  |  |  |  |  |  |  |  |  |  |  |  |  |  |  |  |  |  | MICs (range over the strains) ([3]; resistant strains of E. coli, K. pneumonia and P. aeruginosa): 0.5 to 2 µg/mL; MIC ([2]; agent alone): 2 µg/mL; MIC (K. pneumoniae M 3; agent alone, NDM-1): 1 µg/mL; MIC (E. coli S 16; agent alone): 1 µg/mL; MIC (P. aeruginosa S 508; agent alone, enzymes VIM-11): 2 µg/mL; MIC (P. aeruginosa S 504; agent alone, enzymes VIM-6): 2 µg/mL; MIC (K. pneumoniae S 48; agent alone, NDM-1): 1 µg/mL; MIC (E. coli S 30; agent alone, NDM-1): 0.5 µg/mL; MIC (K. pneumoniae B 88; agent alone, NDM-1): 1 µg/mL; MIC (K. pneumoniae S 50; agent alone, NDM-1): 1 µg/mL; MIC (K. pneumoniae B 77; agent alone, NDM-1): 1 µg/mL; MIC (E. coli S 35; agent alone, NDM-1): 1 µg/mL; MIC (P. aeruginosa Q-111; agent alone, enzymes OXA-4, OXA-11): 2 µg/mL; MIC (E. coli S 33; agent alone, NDM-1): 1 µg/mL; MIC (E. coli M 44; agent alone, NDM-1): 1 µg/mL; MIC (P. aeruginosa S 513; agent alone, enzymes VIM-6): 2 µg/mL
NCC[C@H](O)C(=O)N[C@@H]1C[C@H](N)[C@@H](O[C@H]2O[C@H](CN)[C@@H](O)[C@H](O)[C@H]2O)[C@H](O)[C@H]1O[C@H]1O[C@H](CO)[C@@H](O)[C@H](N)[C@H]1O [Amikacin, amikacin] |  |  |  | > 32 | 4 | > 64 | > 32 | > 32 | > 64 | > 64 | > 64 | > 64 | > 64 | > 64 | > 64 | > 64 | 16 | > 64 | > 64 | > 32 | 
C[C@@H](O)[C@H]1C(=O)N2C(C(=O)O)=C(SCCN=CN)C[C@H]12 [Imipenem, imipenem] |  |  |  |  |  |  |  |  |  |  |  |  |  |  |  |  |  |  |  |  | Bacterial count ([4]; 2 hours): 7.38 Log CFU/ml; Bacterial count ([4]; 4 hours): 8.32 Log CFU/ml; Bacterial count ([4]; 6 hours): 8.81 Log CFU/ml
O=C(NNC(=O)[C@@H]1CC[C@@H]2CN1C(=O)N2OS(=O)(=O)O)[C@@H]1CCCNC1 [Compound of Formula (I), (2S,5R)-sulphuric acid mono-[2-(N′—[(R)-piperidin-3-carbonyl]-hydrazinocarbonyl)-7-oxo-1,6-diaza-bicyclo[3.2.1]oct-6-yl] ester] | 6.4 | 6.08 | 6.28 | 8 | 0.5 | 0.25 | 8 | 8 | 0.5 | 0.25 | 0.12 | > 32 | > 32 | 0.5 | > 32 | 0.25 | 4 | 0.25 | 0.12 | 8 | MICs (range over the strains) ([3]; most strains of E. coli and K. pneumoniae): 0.1 to 0.5 µg/mL; Bacterial count ([4]; 2 hours): 7.27 Log CFU/ml; Bacterial count ([4]; 4 hours): 7.04 Log CFU/ml; Bacterial count ([4]; 6 hours): 7.45 Log CFU/ml; Change in bacterial count (in words) ([4]; used alone at 8 mcg/ml, at the end of 6 hours): no decrease in bacterial count was observed; Change in bacterial count (in words) [1]: no decrease in bacterial count was observed
